Assay [1] concerns Rattus norvegicus. The experiment in a line: Time required after administration of 3 mg/kg of compound iv, for the AI response to return to 70% of the pretreatment control response. Format: functional.
In assay [2] the test system is Rattus norvegicus. The experiment in a line: Time required after administration of 30 mg/kg of compound po, for the AI response to return to 70% of the pretreatment control response. Format: functional.
Assay [3] relates to Rattus norvegicus. Description: Maximum inhibition of the angiotensin I challenge at 30mg/kg, po in conscious, normotensive rats. It is filed as functional.
Assay [4] deals with Rattus norvegicus. Description: Maximum inhibition of the angiotensin I challenge at 3 mg/kg, iv, in conscious, normotensive rats. It is filed as functional.
The test system of assay [5] is Rattus norvegicus. Description: Maximum effect of 30 mg/kg administered orally on mean aortic blood pressure in the conscious renal hypertensive rat. It is filed as functional, Artery. The following applies: route oral.
The subject of assay [6] is Rattus norvegicus. Description: Change in mean aortic blood pressure in the conscious renal hypertensive rat after oral administration of 30 mg/kg. It is filed as functional, Artery.
Assay [7] concerns the target Angiotensin-converting enzyme (Homo sapiens, UniProt P12821). Description: Concentration required to inhibit the activity of Angiotensin I converting enzyme by 50%. It is filed as protein assay, Cavia porcellus.
The subject of assay [8] is Rattus norvegicus. Description: Maximum effect of 3 mg/kg of compound administered orally on mean aortic blood pressure in the conscious renal hypertensive rat. It is filed as functional, Artery. The following applies: route oral.
The test system of assay [9] is Rattus norvegicus. Description: Change in mean aortic blood pressure in the conscious renal hypertensive rat after oral administration of 3 mg/kg. Format: functional, Artery.
Assay [10] relates to Rattus norvegicus. Description: Time required after administration of 0.03 mg/kg of compound po, for the AI response to return to 70% of the pretreatment control response. It is filed as functional.
For assay [11], the system named is Rattus norvegicus. The experiment in a line: Time required after administration of 0.3 mg/kg of compound po, for the AI response to return to 70% of the pretreatment control response. It is filed as functional.
For assay [12], the system named is Rattus norvegicus. The experiment in a line: Time required after administration of 3 mg/kg of compound po, for the AI response to return to 70% of the pretreatment control response. It is filed as functional.
In assay [13] the test system is Rattus norvegicus. Description: Maximum inhibition of the angiotensin I challenge at 0.03 mg/kg, po, in conscious, normotensive rats. Format: functional.
The test system of assay [14] is Rattus norvegicus. Description: Maximum inhibition of the angiotensin I challenge at 0.3 mg/kg, po, in conscious, normotensive rats. It is filed as functional.
Assay [15] has as its system Rattus norvegicus. Description: Maximum inhibition of the angiotensin I challenge at 3 mg/kg, po, in conscious, normotensive rats. It is filed as functional.
Assay [16] relates to Rattus norvegicus. Description: Maximum effect of 0.3 mg/kg of compound administered orally on mean aortic blood pressure in the conscious renal hypertensive rat. Format: functional, Artery. The note with it: route oral.
The test system of assay [17] is Rattus norvegicus. Description: Change in mean aortic blood pressure in the conscious renal hypertensive rat after oral administration of 0.3 mg/kg. Format: functional, Artery.

Each structure is given as a SMILES string.

Sequence of Angiotensin-converting enzyme (P12821 whole entry): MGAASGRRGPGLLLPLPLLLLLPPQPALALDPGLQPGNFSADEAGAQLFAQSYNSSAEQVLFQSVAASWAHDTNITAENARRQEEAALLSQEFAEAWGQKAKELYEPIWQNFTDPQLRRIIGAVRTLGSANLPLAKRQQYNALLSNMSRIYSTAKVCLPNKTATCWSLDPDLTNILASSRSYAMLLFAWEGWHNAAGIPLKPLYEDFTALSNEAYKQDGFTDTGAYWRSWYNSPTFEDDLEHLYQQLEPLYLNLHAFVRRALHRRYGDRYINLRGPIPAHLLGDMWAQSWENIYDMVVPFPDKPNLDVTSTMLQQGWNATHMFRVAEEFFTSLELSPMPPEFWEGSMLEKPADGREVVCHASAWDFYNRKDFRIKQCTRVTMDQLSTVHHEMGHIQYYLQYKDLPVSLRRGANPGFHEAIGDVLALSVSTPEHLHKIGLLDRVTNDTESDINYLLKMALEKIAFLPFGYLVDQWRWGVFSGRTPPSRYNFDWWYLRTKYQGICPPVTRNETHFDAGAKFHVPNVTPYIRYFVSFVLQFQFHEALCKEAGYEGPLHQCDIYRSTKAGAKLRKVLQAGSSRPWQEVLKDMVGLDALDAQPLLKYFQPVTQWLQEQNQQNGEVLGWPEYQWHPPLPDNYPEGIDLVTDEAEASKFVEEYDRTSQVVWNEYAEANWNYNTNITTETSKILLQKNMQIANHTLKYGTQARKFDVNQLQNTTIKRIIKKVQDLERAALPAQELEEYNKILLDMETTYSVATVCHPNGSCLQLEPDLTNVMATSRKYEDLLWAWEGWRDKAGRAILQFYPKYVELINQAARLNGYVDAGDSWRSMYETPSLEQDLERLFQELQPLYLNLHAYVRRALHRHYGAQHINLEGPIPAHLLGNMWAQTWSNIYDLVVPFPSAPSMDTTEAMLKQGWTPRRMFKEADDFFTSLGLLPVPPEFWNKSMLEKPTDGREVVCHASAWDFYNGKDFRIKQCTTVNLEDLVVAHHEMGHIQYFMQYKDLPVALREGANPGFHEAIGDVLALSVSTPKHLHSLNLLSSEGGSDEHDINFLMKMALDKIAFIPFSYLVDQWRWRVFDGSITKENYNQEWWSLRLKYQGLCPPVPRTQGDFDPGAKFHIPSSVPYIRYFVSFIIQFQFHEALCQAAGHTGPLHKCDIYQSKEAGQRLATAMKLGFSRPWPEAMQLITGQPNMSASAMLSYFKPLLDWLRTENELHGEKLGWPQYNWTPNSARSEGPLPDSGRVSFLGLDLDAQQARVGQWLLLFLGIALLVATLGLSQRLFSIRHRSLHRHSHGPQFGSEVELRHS

As to `O=C(N[C@@H](Cc1ccccc1)C(=O)CCC(=O)N1CCC[C@H]1C(=O)O)c1ccccc1`, the AI recovery time in the assay on Rattus norvegicus [1] turned out to be 34 min; in the assay on Rattus norvegicus [2], 49 min. In addition, the Max inhibition with Rattus norvegicus [3] was 48%; with Rattus norvegicus [4], 57%. For the same compound, the “Mean aortic blood pressure at maximum effect” value (from here on “Mean aortic blood pressure”) in the assay on Rattus norvegicus [5] worked out at 178 mmHg. The Change in the assay with Rattus norvegicus [6] is recorded as -12 mmHg.

On to `O=C(NC(Cc1cccnc1)C(=O)CCC(=O)N1CCC[C@H]1C(=O)O)c1ccccc1` (some centres undefined), for which the “Mean aortic blood pressure” value in the assay with Rattus norvegicus [5] was determined as 184 mmHg. In addition, the Change in the assay with Rattus norvegicus [6] was -20 mmHg.

Turning to `O=C(NC(Cc1ccccc1)C(=O)CCC(=O)N1CCCC1)c1ccccc1` (centres undefined), in [7], the IC50 entry is listed as “Not Active”.

As for `O=C(NC(Cc1ccc(OCc2ccccc2)cc1)C(=O)CCC(=O)N1CCC[C@H]1C(=O)O)c1ccccc1` (some centres undefined), in the assay on Rattus norvegicus [5], the “Mean aortic blood pressure” value is reported as 195 mmHg. In the assay on Rattus norvegicus [6], the Change is -5 mmHg.

In the case of `O=C(NC(Cc1ccccc1)C(=O)CCC(=O)N1CCC[C@H]1C(=O)O)c1ccco1` (some centres undefined), the AI recovery time with Rattus norvegicus [1] is reported as 52 min; in the assay on Rattus norvegicus [2], 84 min. For the same compound, the Max inhibition in the assay with Rattus norvegicus [3] was found to be 32%; in the assay on Rattus norvegicus [4], 84%. Further, the “Mean aortic blood pressure” value in the assay with Rattus norvegicus [5] stood at 184 mmHg. In the assay with Rattus norvegicus [6], this compound registered a Change of -1 mmHg.

For `O=C(CCC(=O)C(Cc1ccccc1)NC(=O)c1ccccc1)NC(Cc1ccccc1)C(=O)OCc1ccccc1` (centres undefined), the “Mean aortic blood pressure” value in the assay with Rattus norvegicus [5] is given as 182 mmHg. Also, the Change in the assay with Rattus norvegicus [6] is recorded as -5 mmHg.

Turning to `O=C(NC(Cc1ccc(O)cc1)C(=O)CCC(=O)N1CCC[C@H]1C(=O)O)c1ccccc1` (some centres undefined), the AI recovery time turned out to be 34 min in the assay with Rattus norvegicus [1] and 24 min in the assay with Rattus norvegicus [2]. Further, the Max inhibition amounted to 46% in the assay on Rattus norvegicus [3] and 82% with Rattus norvegicus [4]. Besides, the “Mean aortic blood pressure” value with Rattus norvegicus [5] came to 172 mmHg. Moreover, in the assay with Rattus norvegicus [6], the Change was -23 mmHg.

For `COC(=O)[C@@H]1CCCN1C(=O)CCC(=O)C(Cc1ccccc1)NC(=O)c1ccccc1` (some centres undefined), the “Mean aortic blood pressure” value in the assay on Rattus norvegicus [5] worked out at 142 mmHg. In the assay with Rattus norvegicus [8], this compound had a Max effect of 165 mmHg. For the same compound, the Change is reported as -11 mmHg in the assay with Rattus norvegicus [6] and -34 mmHg with Rattus norvegicus [9].

Take `O=C(NC(Cc1ccccc1)C(=O)CCC(=O)N1CCC[C@H]1C(=O)O)OCc1ccccc1` (some centres undefined): the “Mean aortic blood pressure” value in the assay on Rattus norvegicus [5] worked out at 175 mmHg. The Change in the assay on Rattus norvegicus [6] is given as -22 mmHg.

For the compound `Cc1ccccc1C(=O)NC(Cc1ccccc1)C(=O)CCC(=O)N1CCC[C@H]1C(=O)O` (some centres undefined), the “Mean aortic blood pressure” value in the assay with Rattus norvegicus [5] worked out at 188 mmHg. Moreover, the Change in the assay on Rattus norvegicus [6] is given as -15 mmHg.

`COc1ccc(CC(NC(=O)c2ccccc2)C(=O)CCC(=O)N2CCC[C@H]2C(=O)O)cc1OC` (some centres undefined): the values for the AI recovery time in the assay with Rattus norvegicus [1] and in the assay on Rattus norvegicus [2] were 24 min and 5 min, respectively. For the same compound, the Max inhibition with Rattus norvegicus [3] stood at 33%; with Rattus norvegicus [4] it was 74%. In the assay with Rattus norvegicus [5], the “Mean aortic blood pressure” value was found to be 174 mmHg. The compound also registered a Change in the assay on Rattus norvegicus [6] of -5 mmHg.

With `O=C(NC(Cc1cccnc1)C(=O)CCC(=O)N1CCC[C@H]1C(=O)OCc1ccccc1)c1ccccc1` (some centres undefined), the “Mean aortic blood pressure” value in the assay on Rattus norvegicus [5] is recorded as 159 mmHg. The compound also had a Change in the assay with Rattus norvegicus [6] of -32 mmHg.

Regarding `O=C(CCC(=O)N1CCC[C@H]1C(=O)O)C(Cc1ccccc1)NC(=O)C1CCCO1` (some centres undefined), the AI recovery time in the assay on Rattus norvegicus [2] was found to be 10 min. Also, the Max inhibition is recorded as 24% in the assay on Rattus norvegicus [3] and 64% with Rattus norvegicus [4]. Besides, the “Mean aortic blood pressure” value in the assay on Rattus norvegicus [5] turned out to be 163 mmHg. The Change in the assay on Rattus norvegicus [6] is -23 mmHg.

As to `CC(=O)NC(Cc1ccccc1)C(=O)CCC(=O)N1CCC[C@H]1C(=O)O` (some centres undefined), the “Mean aortic blood pressure” value in the assay with Rattus norvegicus [5] was 176 mmHg. The compound also displayed a Change in the assay with Rattus norvegicus [6] of -26 mmHg.

Consider `C[C@H](CS)C(=O)N1CCC[C@H]1C(=O)O` [CAPTOPRIL], for which the AI recovery time is given as 80 min with Rattus norvegicus [10], 170 min in the assay on Rattus norvegicus [11] and greater than 240 min in the assay with Rattus norvegicus [12]. For the same compound, the Max inhibition is listed as 16% in the assay on Rattus norvegicus [13], 69% with Rattus norvegicus [14] and 95% in the assay on Rattus norvegicus [15]. For the same compound, the Max effect in the assay with Rattus norvegicus [16] is on record as 170 mmHg; in the assay on Rattus norvegicus [8], 99 mmHg. In the assay with Rattus norvegicus [5], the “Mean aortic blood pressure” value turned out to be 85 mmHg. Besides, the Change in the assay on Rattus norvegicus [17] was -19 mmHg; with Rattus norvegicus [6] it was -101 mmHg; with Rattus norvegicus [9], -93 mmHg.

Turning to `Cc1ccccc1C(=O)NC(Cc1ccccc1)C(=O)CCC(=O)N1CCC[C@H]1C(=O)OCc1ccccc1` (some centres undefined), in the assay on Rattus norvegicus [5], the “Mean aortic blood pressure” value came out at 175 mmHg. Further, the Change with Rattus norvegicus [6] is recorded as -20 mmHg.

Regarding `O=C(NC(Cc1ccccc1)C(=O)CCC(=O)N1CC(O)C[C@H]1C(=O)O)c1ccccc1` (some centres undefined), in the assay on Rattus norvegicus [5], the “Mean aortic blood pressure” value amounted to 168 mmHg. The compound further returned a Change with Rattus norvegicus [6] of -20 mmHg.
